US20120122791A1, “SUBSTRATE FOR CARTILAGE CULTIVATION USING ARTIFICIAL COLLAGEN, AND METHOD FOR CARTILAGE REGENERATION TREATMENT USING THE SUBSTRATE” (JNC CORPORATION, priority 2009, published 2012)

Key:
cartilage defect model = experiment: Cartilage regeneration by intraarticular administration in cartilage defect model (modified ICRS score, Safranin-0 staining, type 2 collagen immunostaining); assay type: in vivo, New Zealand white domestic rabbits; details: for macroscopic observation of knee joints: collected Week 7; for Safranin-0-stained area ratio compared to control group / Safranin-0 stained area compared to control group / type 2 collagen antibody-immunostained area compared to control group / type 2 collagen antibody-immunostained area ratio compared to control group: intraarticular
Experimental: A cartilage defect with a diameter of 5 mm was made on the patellofemoral joint of each of 18 knees of 9 New Zealand white domestic rabbits (22 week-old, 3.4 to 3.8 kg) after anesthesia, and further, a wound was sutured to prepare a cartilage defect model (Week 0). The 18 knees were divided into 3 groups, and on Week 1, Week 3, and Week 5, physiological saline was administered for a control group, and an intraarticular injection (0.1 ml/kg) was performed for an artificial collagen aqueous solution administration group. After that, knee joints were collected on Week 7. The ICRS score in Table 4 below is an evaluation method generally used when cartilage grafting to a cartilage defect is performed. The inventors of the present invention adopted, as an evaluation method in the case of administering a medicament without performing cartilage grafting, a modified ICRS score, which is an evaluation method involving using two items of “Degree of defect repair” and “Macroscopic appearance” and performing evaluation with a total score of 0 to 8. […] As recognized from the result of modified ICRS score described in FIG. 12, cartilage regeneration could be achieved by the intraarticular administration of the artificial collagen aqueous solution as the substrate for cartilage cultivation of the present invention. It should be noted that the results with a modified ICRS score are expressed as an average of scores of 6 knees for the control group, an average of 6 knees for the 0.1% (W/V) group, and an average of 6 knees for the 0.5% (W/V) group. In addition, a Mann-Whitney U test was used for statistics. […] The stained areas of the 0.1% (W/V) artificial collagen administration group and the 0.5% (W/V) artificial collagen administration group were larger compared to the stained area of the control group. In particular, a proteoglycan was present in a large amount. In addition, the stained area ratios of the 0.1% (W/V) artificial collagen administration group and the 0.5% (W/V) artificial collagen administration group were larger compared to the stained area ratio of the control group. […] The stained areas of the 0.1% (W/V) artificial collagen administration group and the 0.5% (W/V) artificial collagen administration group were larger compared to the stained area of the control group. In addition, the stained area ratios of the 0.1% (W/V) artificial collagen administration group and the 0.5% (W/V) artificial collagen administration group were larger compared to the stained area ratio of the control group.

cartilage cells = experiment: Proteoglycan production ability of cartilage cells (Na2 35SO4 incorporation) by addition of artificial collagen aqueous solution; assay type: cell-based, New Zealand white rabbits; details: 7 days, vs 0% control
Experimental: (§1) Shoulder joints and knee joints were extirpated from 5 New Zealand white rabbits (male, 8- to 9 week-old), and only a cartilage layer was excised and sampled with a surgical knife. After washing with a sterilized PBS solution, pronase was added to 25 ml of Dulbecco's Modified Eagle's medium+gentacin (25 μg/ml) at a concentration of 0.4% (W/V), and incubation was performed at 37° C. for 2 hours. The solution was supplemented with collagenase at a concentration of 0.025% (W/V), and incubated at 37° C. overnight. The resulting solution was washed to collect cartilage cells. After that, the cartilage cells were seeded into a dish with a diameter of 90 mm at 1 to 2×10^6 cells/dish, and a medium exchange was performed once every 3 days. At the time point where the cells became confluent, subcultivation was performed only once. The following experiments were performed by using cells which had been subcultivated once. Further, the composition of a cultivation medium is as described below.
Cartilage cells in a semi-confluent state were detached from a dish by a tripsin-EDTA solution treatment, supplemented with a cultivation medium, and washed by centrifugation. After that, the cells were seeded into a 6-well plate at 1.5×10^6 cells/well and cultivated under conditions of 37° C. and 5% CO2.
At 24 hours after the start of the cultivation, a 1% (W/V) artificial collagen aqueous solution was diluted with a cultivation medium to prepare 0.10, 0.20, 0.30, 0.40, and 0.50% (W/V) artificial collagen aqueous solutions. The artificial collagen aqueous solutions were allowed to act on the cells for an additional 7 days, and further supplemented with 10 μCi/ml Na2^35SO4 to perform cultivation for the last 24 hours. A medium exchange was performed once every 3 days. It should be noted that a 0% (W/V) artificial collagen aqueous solution was used as a control.
After the completion of the above-mentioned cultivation, the cells were washed with a fresh cultivation medium, and a lysis buffer (4 M GuHCl, 0.05 M NaAC, pH 6.0) supplemented with protease inhibitors (0.1 M 6-aminohexanoic acid, 0.005 M benzamidine hydrochloride, 0.01 M Nae EDTA, 0.01 M N-ethylmaleimide, and 0.001 M phenylmethyl sulfonyl fluoride) was added into each well. The cells were extracted at 4° C. for 4 hours, and centrifuged at 15000 rpm at 4° C. for 20 minutes.
The cells were eluted with an elution buffer (4 M GuHCl, 0.05 M Na acetate, 0.1 M Na sulfate, and 0.5% Triton X-10 (pH 7.5)) by using a PD-10 pre-packed column (GE Healthcare Bio-Sciences Ltd.) to fractionate samples. To each of the fractionated samples, ethanol and a scintillator were added and mixed, and the radioactivity content (cpm) was measured with a liquid scintillation counter. Further, the DNA amount of each of the samples used in this case was measured with a Hoechst 33258 dye to determine a DNA value expressed as cpm/mg.

aggrecan mRNA = experiment: Aggrecan mRNA amount in cartilage cells by addition of artificial collagen aqueous solution (real-time PCR); assay type: cell-based, New Zealand white rabbits; details: relative to 0% defined as 1
Experimental: as §1
(§2) Cartilage cells in a semi-confluent state were detached from a dish by a tripsin-EDTA solution treatment, supplemented with a cultivation medium, and then washed by centrifugation. After that, the cells were seeded into a 12-well plate at 3×10^5 cells/well, and cultivation was started under conditions of 37° C. and 5% CO2.
(§3) At 24 hours after the start of the cultivation, a 1% (W/V) artificial collagen aqueous solution was diluted with a cultivation medium to prepare 0.10, 0.20, 0.30, 0.40, and 0.50% (W/V) artificial collagen aqueous solutions. Then, cultivation was performed for 4, 7, 14, and 21 days. It should be noted that a 0% (W/V) artificial collagen aqueous solution was used as a control.
(§4) After the completion of the above-mentioned cultivation, the cartilage cells were collected, and RNA extraction was performed by using RNeasy (registered trademark) Mini Kit (QIAGEN). A reverse transcription reaction was performed by using QuantiTect (registered trademark) Reverse Transcription Kit (QIAGEN). To be more specific, Real-time PCR was performed by the following method.
(§5) The model used for Real-time PCR was ABI PRISM 7000 (Applied Biosystems), and the reagents used were Real-time PCR Master Mix (TOYOBO) and Pre-Developed TaqMan & reg; Assay Reagents Eukaryotic 18S rRNA (Applied Biosystems), TaqMan & reg; Probe kit (Applied Biosystems).
(§6) At 50° C. for 2 minutes, at 95° C. for 10 minutes (at 95° C. for 15 seconds, at 60° C. for 1 minute)×40 cycles.

type 2 collagen mRNA = experiment: Type 2 collagen mRNA amount in cartilage cells by addition of artificial collagen aqueous solution (real-time PCR); assay type: cell-based, New Zealand white rabbits; details: relative to 0% defined as 1
Experimental: as §1, §2, §3, §4, §5, §6

## Poly(Tripeptide-6) [artificial collagen aqueous solution]
Cartilage defect model; 0.1% (W/V), intraarticular 0.1 ml/kg on Week 1, 3, 5, Week 7, Mann-Whitney U test
  modified ICRS score vs control group: significant difference
Cartilage defect model; 0.1% (W/V), intraarticular 0.1 ml/kg on Week 1, 3, 5
  macroscopic observation of knee joints: many knee joints have smooth surfaces
Cartilage defect model; 0.1% (W/V), Week 7
  Safranin-0-stained area ratio compared to control group: larger
  Safranin-0 stained area compared to control group: larger
  type 2 collagen antibody-immunostained area compared to control group: larger
  type 2 collagen antibody-immunostained area ratio compared to control group: larger
Cartilage defect model; 0.5% (W/V), intraarticular 0.1 ml/kg on Week 1, 3, 5
  macroscopic observation of knee joints: many sparse fissures
Cartilage defect model; 0.5% (W/V), Week 7
  Safranin-0-stained area ratio compared to control group: larger
  Safranin-0 stained area compared to control group: larger
  type 2 collagen antibody-immunostained area compared to control group: larger
  type 2 collagen antibody-immunostained area ratio compared to control group: larger
Cartilage cells; 0.10% (W/V)
  proteoglycan production: significantly enhanced
Cartilage cells; 0.20% (W/V)
  proteoglycan production: significantly enhanced
Cartilage cells; 0.30% (W/V)
  proteoglycan production: significantly enhanced
Cartilage cells; 0.40% (W/V)
  proteoglycan production: significantly enhanced
Cartilage cells; 0.50% (W/V)
  proteoglycan production: significantly enhanced
Aggrecan mRNA; Day 4, the respective concentrations (0.10 to 0.50% (W/V))
  aggrecan mRNA amount: no significant change
Aggrecan mRNA; Day 7, the respective concentrations (0.10 to 0.50% (W/V))
  aggrecan mRNA amount: no significant change
Aggrecan mRNA; Day 21, 0.20% (W/V)
  aggrecan mRNA amount: significantly lowered
Aggrecan mRNA; Day 21, 0.30% (W/V)
  aggrecan mRNA amount: significantly lowered
Aggrecan mRNA; Day 21, 0.40% (W/V)
  aggrecan mRNA amount: significantly lowered
Aggrecan mRNA; Day 21, 0.50% (W/V)
  aggrecan mRNA amount: significantly lowered
Type 2 collagen mRNA; Day 4, 0.10% (W/V)
  type 2 collagen mRNA expression: significantly enhanced
Type 2 collagen mRNA; Day 7, 0.40% (W/V)
  type 2 collagen mRNA expression: lowered
Type 2 collagen mRNA; Day 7, 0.50% (W/V)
  type 2 collagen mRNA expression: lowered
Type 2 collagen mRNA; Day 21, 0.40% (W/V)
  type 2 collagen mRNA expression: lowered
Type 2 collagen mRNA; Day 21, 0.50% (W/V)
  type 2 collagen mRNA expression: lowered
